Assay [1] can be described thus: Free radical scavenger, SOD mimetic activity (xanthine/xanthine oxidase, NBT). Type of assay: biochemical. As to the method:
SO101C or vehicle was incubated with 0.12 mM xanthine, 6 mU xanthine oxidase, 27 μM nitroblue tetrazolium (NBT), 0.11 mM EDTA, 0.005% bovine serum albumin and Na2CO3 at pH 10.5 at 25° C. for 20 minutes. Conversion of xanthine to uric acid +O^−+NBT to formazan was then determined by measurement of absorbance at 595 nm and percent inhibition by superoxide dismutase or test compound was calculated.

In assay [2] the target is T1, MMP-2 (Homo sapiens, UniProt P08253).
T1 construct: Serum free culture supernatant of confluent human dermal fibroblast was used as the source of MMP; endogenous in cells; host or cells: human dermal fibroblasts, serum-free culture supernatant
T1 sequence (P08253 110-660): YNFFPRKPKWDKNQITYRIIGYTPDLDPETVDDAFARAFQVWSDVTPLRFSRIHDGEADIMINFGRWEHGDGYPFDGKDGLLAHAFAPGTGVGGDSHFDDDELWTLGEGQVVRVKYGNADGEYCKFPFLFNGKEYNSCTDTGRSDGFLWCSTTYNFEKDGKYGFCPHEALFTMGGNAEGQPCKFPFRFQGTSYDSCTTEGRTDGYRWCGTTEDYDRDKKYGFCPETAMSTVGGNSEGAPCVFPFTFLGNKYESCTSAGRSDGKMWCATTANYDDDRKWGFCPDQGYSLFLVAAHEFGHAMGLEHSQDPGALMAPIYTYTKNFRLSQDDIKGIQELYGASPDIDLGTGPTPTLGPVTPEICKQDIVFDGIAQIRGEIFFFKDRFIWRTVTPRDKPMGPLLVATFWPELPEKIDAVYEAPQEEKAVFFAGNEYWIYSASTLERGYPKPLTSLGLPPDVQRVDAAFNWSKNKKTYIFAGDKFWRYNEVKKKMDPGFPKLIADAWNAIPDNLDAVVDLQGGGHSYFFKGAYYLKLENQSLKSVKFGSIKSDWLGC
Put plainly: Inhibition of MMP-2 activity in cell free system, gelatin zymography. Type of assay: biochemical. Conditions: for MMP-2 activity (% of control): 24 hours. As to the method: Serum free culture supernatant of confluent human dermal fibroblast was used as the source of MMP. Equal amount of the supernatant treated with equal volume of 2 fold concentration of SDS sample buffer without reducing agent was subjected to electrophoresis The samples were loaded into each well of a 10% SDS polyacrylamide gel containing 1 mg/ml of bovine gelatin (Sigma), and run at 20 mA in ice bath by a BioRad Mini Protean gel apparatus. After dye front reached the bottom of the gel, the gel was washed three times, 15 minutes each, with 2.5% Triton X-100. Then, the gel was sliced and incubated in developing buffer (50 mM Tris-HCl, pH7.6, 10 mM CaCl2, 50 mM NaCl, 0.05% Brij35) containing SO101C or EDTA or vehicle at 37° C. for 24 hours. The gel was stained with 0.1% Coomassie blue R250 (Sigma) in 40% methanol and 10% acetic acid, and destained in 30% methanol and 7% acetic acid. The enzyme digested clear bands were visualized in the blue background. The comparison of the enzymatic activities (clear band width) was analyzed by Image J (NIH).

For assay [3], the system named is MMP-2. Nature of the assay: MMP-2 activities of treated chondrocyte culture supernatants, gelatin zymography. Type of assay: cell-based, Human. Conditions: 1 mM; chondrocytes treated 2 weeks.
Method: Ten μl of 1×10^7 cells/ml in C-DMEM was seeded into the center of each well of 48 multiwell culture dish (Nunc, Roskilde, Danmark). Two hours later, 250 μl of F12/DMEM containing 5% FCS, 6.25 μg/ml bovine insulin, 25 μg/ml ascorbic acid and 100 nM Dexamethasone (induction medium) with various concentrations of herbal composition or glucosamine (Sigma) was added. The media were changed twice a week for two weeks. At the end of the incubation, the media were changed with fresh DMEM.
Equal amount of protein of each culture medium was mixed with equal volume of 2 fold concentration of non-reducing SDS sample buffer, and incubated at room temperature for two hours for sample to denature. The samples were loaded into each well of a 10% SDS polyacrylamide gel containing 1 mg/ml of bovine gelatin (Sigma), and run at 20 mA in ice bath by a BioRad Mini Protean gel apparatus. After dye front reached the bottom of the gel, the gel was washed three times, 15 minutes each, with 2.5% Triton X-100. Then, the gel was renatured in developing buffer (50 mM Tris-HCl, pH7.6, 10 mM CaCl2, 50 mM NaCl, 0.05% Brij35) at 37° C. for 24 hours. The gel was stained with 0.1% Coomassie blue R250 (Sigma) in 40% methanol and 10% acetic acid, and destained in 30% methanol and 7% acetic acid. […] The comparison of the enzymatic activities (clear band width) was analyzed by Image J (NIH).
Assay [4] relates to chondrocytes. Put plainly: ALP, collagen and GAGs synthesis in chondrocytes in micromass culture (staining), without or with H2O2. Type of assay: cell-based, Human. Conditions: 1 mM; same experimental conditions. As to the method: Human articular cartilage was obtained from patients who received total joint replacement with consent. The cartilage was digested with 1 mg/ml of Class 2 and Class 4 bacterial collagenase (Worthington Chemical, Freehold, N.J.) in DMEM containing 10% fetal calf serum (FCS) and 25 μg/ml Gentamicin (C-DMEM, Gibco, Grand Island, […]) at 37° C. overnight. […] Ten μl of 1×10^7 cells/ml in C-DMEM was seeded into the center of each well of 48 multiwell culture dish (Nunc, Roskilde, Danmark). […] The media were changed twice a week for two weeks. At the end of the incubation, the media were changed with fresh DMEM. Twenty-four hours later, the media were collected for MMP zymography study and cells were fixed and stained for alkaline phosphatase (ALP), collagen or glycosaminoglycan using Naphthol AS-MX phosphate/Fast red, Sirius red, or Safranin O (Sigma), respectively.

The test system of assay [5] is human chondrocytes. Put plainly: Gene expression of chondrocytes (RT-PCR, normalized by β-Actin). Type of assay: cell-based. To be noted: 2 weeks. As to the method:
Reverse transcription was carried out at 37° C. for one hour by a programmable thermal controller (PTC-100, MJ Research, Inc., Watertown, Mass.). Reaction was terminated by raising the temperature to 93° C. for five minutes. PCR was performed in a thermal controller (PTC-100, MJ Research, Inc., Watertown, Mass.) with master mix (HotStarTaq DNA polymerase, Qiagen) at initial denaturation at 95° C. for 15 minutes, followed by 25 cycles of 94° C. for 1 minute, 58° C. for 40 seconds, and 72° C. for 40 seconds. The final cycle extended 72° C. for 10 minutes. The PCR products accompanied by 100 bp ET marker were separated by 1.2% agarose gel, stained with ethidium bromide and visualized under UV light. A Polaroid picture was taken by Foto/Phoresis UV documentation system (Fotodyne Inc.). Beta-actin expression under the same experimental conditions was used as a reference to normalize the expressions. The comparison of bend width of PCR was analyzed by Image J (NIH) after normalized by the expression of β-Actin.

In assay [6] the test system is Human bone marrow mesenchymal stem cells. Nature of the assay: ALP, collagen and GAGs synthesis in bone marrow mesenchymal stem cells in micromass culture (staining). Type of assay: cell-based. To be noted: 1 mM; same experimental conditions. As to the method: Human bone marrow mesenchymal stem cells were obtained from patients receiving total joint replacement with consent. […] Ten μl of 1×10^7 cells/ml in C-DMEM was seeded into the center of each well of 48 multiwell culture dish (Nunc, Roskilde, Danmark). […] The media were changed twice a week for two weeks. At the end of the incubation, cells were fixed and stained for alkaline phosphatase (ALP), collagen or glycosaminoglycan using Naphthol AS-MX phosphate/Fast red, Sirius red, or Safranin O (Sigma), respectively.

Assay [7] can be described thus: 2,2-diphenyl-1-picrylhydrazyl (DPPH) radical scavenging activity. To be noted: for Absorbance at 517 nm, Sample 1 to 3: 30 minutes, single samples; for Absorbance at 517 nm, Average: control 0.963. As to the method:
SO101C, vitamin C or vitamin E at various concentrations were incubated with 0.4 mM 2,2-diphenyl-1-picrylhydrazyl (DPPH, Sigma) in ethanol at room temperature for 30 minutes. Absorbance at 517 nm was measured by a spectrophotometer.
In general terms: DPPH is a stable violet radical that fades when it is reduced.

The target of assay [8] is T2, MMP-3 (stromelysin-1, human recombinant catalytic domain) (Homo sapiens, UniProt P08254).
T2 construct: MMP-3 (stromelysin-1, human recombinant catalytic domain from Calbiochem Cat. 444217); purchased Calbiochem 444217
T2 sequence (P08254 100-272 limits assumed): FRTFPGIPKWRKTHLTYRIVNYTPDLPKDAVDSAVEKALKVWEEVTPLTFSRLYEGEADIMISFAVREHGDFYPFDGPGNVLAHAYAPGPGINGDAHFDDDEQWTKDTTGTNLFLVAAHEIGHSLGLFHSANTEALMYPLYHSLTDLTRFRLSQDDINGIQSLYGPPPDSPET
Nature of the assay: Inhibition of MMP-3 enzyme activity, fluorogenic substrate. Type of assay: biochemical. As to the method: (§1) MMP-3 (stromelysin-1, human recombinant catalytic domain from Calbiochem Cat. 444217) was activated by p-aminophenylmercuric acetate for 60 minutes at 37° C. After preincubation of SO101C or vehicle with the activated enzyme (5 nM) in a reaction mixture containing 50 mM MOPS (pH 7.2), 10 mM CaCl2 and 10 μM ZnCl2 at 37° C. for 60 minutes, the reaction was initiated by addition of 4 μM (7-methoxycoumarin-4-yl)acetyl-Pro-Leu-Gly-Leu-N-3-(2,4-dinitrophenyl)-L-2,3-diaminopropinoyl-Ala-Arg-NH2 and incubated for a further 120 minutes at 37° C. Enzyme activity was determined spectrofluorometrically by measuring the formation of fluorescent (7-methoxycoumarin-4-yl)acetyl-Pro-Leu-Gly.

The target of assay [9] is T3, MMP-13 (human recombinant) (Homo sapiens, UniProt P45452).
T3 construct: purchased Calbiochem 444248; host or cells: Sf9
Nature of the assay: Inhibition of MMP-13 enzyme activity, fluorogenic substrate. Type of assay: biochemical. As to the method:
as §1, with “MMP-13 proenzyme (human recombinant, expressed in Sf9 cell,” for “MMP-3 (stromelysin-1, human recombinant catalytic domain from”, “444248)” for “444217)”, “with the activated enzyme (0.5” for “(5”, “ZnCl2 for 60 minutes” for “ZnCl2”, “C.,” for “C. for 60 minutes,”

Assay [10] is described as follows: Anti-lipid peroxidation activity (malondialdehyde/thiobarbituric acid). Conditions: for OD (A532-A600): control (0) 0.973. Type of assay: biochemical, Mouse. As to the method:
Mouse brain KCl extract was used as the source of lipid. Brain extract was incubated with 1 mM FeSO4 and 0.1 mM vitamin C at 37° C. for 90 minutes. The malondialdehyde formed by peroxyl radical was reacted with thiobarbituric acid to form an adduct that absorbed at 532 nm after centrifugation to discard TCA precipitation.

Values joined by “and” are separate entries in the source; they are usually repeats but may differ in a detail not shown here. Identical values can stand only once.

For the molecule `O=C(O[C@@H]1Cc2c(O)cc(O)cc2O[C@@H]1c1ccc(O)c(O)c1)c1cc(O)c(O)c(O)c1` [(−)-Epicatechin gallate], the “Inhibition (%)” value in assay [1] (6.1 μM) is reported as 50%. Besides, the IC50 in assay [1] (read-out: Concentration giving 50 % inhibition (SOD mimetic assay)) came to 6100 nM.
For `O=C(O)CN(CCN(CC(=O)O)CC(=O)O)CC(=O)O` [EDTA], in assay [2], the “inhibition of MMP-2 activity in cell free system (in words)” value is “showed dose dependent inhibition”. Besides, the “MMP-2 activity (% of control)” value is on record as 46.6 % of control in assay [2] (0.1 mM) and 30.5 % of control in assay [2] (0.3 mM).
In the case of `N[C@H]1C(O)O[C@H](CO)[C@@H](O)[C@@H]1O` (stereo partly drawn) [Glucosamine, glucosamine], in [3], the “MMP-2 activity (% of control) Active form (66K)” value is 118.2 % of control and the “MMP-2 activity (% of control) Latent form (72K)” value is on record as 92.5 % of control. Also, the “effects on ALP, collagen and GAGs in chondrocytes (in words)” value in [4] is listed as “did not show significant effects”. In [5] (1 mM), the “Gene expression (% of control) ALP” value is on record as 180.0 % of control, the “Gene expression (% of control) Aggrecan” value was 133.7 % of control, the “Gene expression (% of control) Aggrecanase” value is 130.9 % of control and the “Gene expression (% of control) BMP-2” value was 173.4 % of control. Moreover, in [5] (1 mM), the “Gene expression (% of control) Col II” value is on record as 162.4 % of control and the “Gene expression (% of control) TGF-β” value is listed as 120.9 % of control. For the same molecule, in assay [5] (SO101C 0.01 mg/ml or glucosamine 1 mM), the “expression of cartilage metabolism related genes (in words)” value is “stimulated the expression of most of the cartilage metabolism related genes”. Further, the “effect on ALP, collagen and GAGs in bone marrow mesenchymal stem cells (in words)” value in [6] is “did not show significant effect”.
Turning to `O=C1O[C@H]([C@@H](O)CO)C(O)=C1O` [Vitamin C, vitamin C], the “Inhibition (%)” value was 19.5% in [7] (0.01 mM), 64.8% in assay [7] (0.03 mM) and 92.5% in assay [7] (0.1 mM). The “Absorbance at 517 nm, Sample 1 to 3” value is 0.753 and 0.790 and 0.781 in assay [7] (0.01 mM); 0.321 and 0.362 and 0.333 in [7] (0.03 mM); 0.068 and 0.079 in [7] (0.1 mM). Besides, the results for the “Absorbance at 517 nm, Average” value in assay [7] (0.01 mM), in assay [7] (0.03 mM) and in assay [7] (0.1 mM) were 0.775, 0.339 and 0.072, respectively.
With “TIMP-1: reference agent in the MMP-3 and MMP-13 inhibition tables”, the “Inhibition (%)” value in assay [8] (0.0076 μM) and in [9] (0.0068 μM) was 50% throughout. The IC50 in assay [8] (read-out: Concentration giving 50 % inhibition of MMP-3) amounted to 7.6 nM; in [9] (read-out: Concentration giving 50 % inhibition of MMP-13), 6.8 nM.
Regarding vitamin E, the “Inhibition (%)” value in assay [7] (0.01 mM) is on record as 30.6%; in assay [7] (0.03 mM) it was 76.9%; in [7] (0.1 mM), 77.5%. For the same molecule, the “Absorbance at 517 nm, Sample 1 to 3” value is 0.647 and 0.688 and 0.668 in assay [7] (0.01 mM); 0.213 and 0.208 and 0.245 in assay [7] (0.03 mM); 0.204 and 0.241 and 0.205 in [7] (0.1 mM). For the same molecule, the “Absorbance at 517 nm, Average” value in assay [7] (0.01 mM) was found to be 0.668; in assay [7] (0.03 mM), 0.222; in assay [7] (0.1 mM) it was 0.217. Moreover, in assay [10], the “inhibition of lipid peroxidation (in words)” value is listed as “dose dependently inhibited lipid peroxidation”. Besides, the figures for the “OD (A532-A600)” value in [10] (0.003 mM), in assay [10] (0.01 mM) and in [10] (0.03 mM) were 0.844, 0.697 and 0.526, respectively.

For the origin of these results see patent publication US20110008433A1, “Herbal Composition for Osteoarthritis” (priority 2009, published 2011).
